Consider five compounds from patent US11857550B2, “Benzathine analogs” (University of Pittsburgh—Of the Commonwealth System of …, priority 2012, dated 2024).

Structures are written as SMILES.

In one data set the test system is MLE cells. As to the kind of experiment: BrdU/7-AAD FACS cell cycle and apoptosis analysis. It counts as cell-based, murine. The procedure:
FIGS. 27A-27G. […] A. PBMCs from 5 controls, AML, and ALL subjects were cultured in RPMI medium for 18 h. Cells were then collected, lysed, and assayed for protein immunoblotting. B-D. Human leukemia cells (U937, K562 and THP1 cells) were treated with BC-1258 at different concentrations for 16 h. Cells were collected and assayed for Aurora B, cyclin D2, cyclin D3 and FBXL2 immunoblotting. E-F. MLE cells were treated with BC-1258 at different concentrations for 16 h, cells were processed by BrdU uptake and 7-AAD staining followed by FACS cell cycle analysis (E), 2N, 4N, and 8N DNA histograms were quantitated and graphed in (F). G. Quantification of FACS analysis showing levels of apoptotic MLE cells after BC-1258 treatment at each time point.

The test system of the next data set is U937 tumor implants. As to the kind of experiment: U937 tumor xenograft in nude mice. It counts as in vivo. Conditions: 30 ug/ml in the drinking water. On the procedure: FIGS. 28A-281. […] A-E. Effect of BC-1258 and other compounds on growth of U937 tumor implants in nude mice, n=4 mice/group with drug concentration at 30 ug/ml in the drinking water. […] B. Tumor volume measurements over time (n=4 mice/group, *P<0.05 versus con). D. Tumor tissue from C were weighted and graphed (n=4 mice/group, *P<0.05 versus con). E. Tumors from three controls and three drug treated U937 implants in mice were collected at the end-point, and assayed for AuroraB, CaM and FBXL2 proteins by immunoblotting. F-I. Serum of each mice were collected at the end point and processed for creatinine, LDH, ALT and creatine kinase activity.

Another data set has as its system human PBMC cells. As to the kind of experiment: LPS-induced IL1β and TNFα cytokine release from PBMC cells (ELISA). It counts as cell-based. Particulars: LPS-exposed human PBMC. The procedure:
(§1) FIGS. 20A-20J is a table depicting benzathine compounds, and assay results. PBMC cells (0.6 ml at 1.5*10^6/ml) were treated with 2 ug/ml LPS for 16 hrs along with each compound at different concentrations. IL1β and TNFα cytokine release were monitored by ELISA to calculate the IC50. U937 monocyte (0.6 ml at 1.5*10^6/ml) were treated with each compound at different concentrations for 16 h. Cells were then stained with Trypan blue to differentiate dead cells, and calculate the LD50. Therapeutic index (TI)=LD50/IC50. Compounds marked in red are high value targets (low IC50, high LD50) and require further testing in vivo.
(§2) Briefly, compounds were added to human PBMC cells at different concentrations that were exposed to […] and cytokine secretion was monitored by ELISA to determine the IC50. Compounds were also added to U937 monocytes at different concentrations, and cells were stained with trypan blue to determine the LD50. […] Several functional studies were undertaken to assess anti-inflammatory effects focusing on BC-1215.
A general note: An ELISA detects its analyte on a solid surface through an enzyme-linked reagent.

A further data set concerns U937 monocyte. The data set can be described thus: U937 monocyte Trypan blue cell death (LD50). It counts as cell-based, human. Conditions: U937 monocytes, 16 h. The procedure: as §1, §2
In data set [1] the test system is C57BL6 mice. The data set can be described thus: Pseudomonas aeruginosa PA103 pneumonia model. The data set is classed as in vivo. Particulars: i.p., PA103 2.5*10^4 cfu/mouse i.t., 18 h.
The test system of data set [2] is C57BL6 mice. As to the kind of experiment: TPA induced ear edema. It counts as in vivo. Particulars: various doses to ears 30 min after TPA, 18 h. The procedure: FIGS. 15A-15C. […] FIG. 15A-15C. C57BL6 mice were deeply anesthetized with ketamine (80-100 mg/kg i.p.) and xylazine (10 mg/kg i.p.). 20 μl of ethanol solution of BC-1215 was applied to ears at 8, 40, 200 ug/ear 30 min after TPA administration (2 μg/ear). Comparisons included equal volumes of ethanol (vehicle control). 18 h after TPA administration, mice were euthanized; the thickness of the ear was measured using a micrometer (FIG. 15B). Ear punch biopsies were also taken immediately, weighed and graphed (FIG. 15C).
FIGS. 23A-23D. […] Different dose of BC-1261 was applied to ears of mice at various doses 30 min after TPA administration (2 μg/ear). A. Gross comparisons were made with equal volumes of ethanol as a vehicle control (CON). 18 h after TPA administration, mice were euthanized and the thickness of the ear was measured using a micrometer (B). Autopsy sample were also taken to measure MPO activity (C) and calculate ear edema (D). The data represent n=6 mice/group, *P<0.05 versus TPA.
Topical application of BC-1215 as an anti-inflammatory agent was tested in a model of 12-O-tetradecanoylphorbol-13-acetate (TPA) induced ear edema (Bralley et. al., J Inflamm (LOnd), 2008. 5:p.1). Briefly, 20 μl of an ethanol solution of BC-1215 was applied to ears of mice at 8, 40, and 200 ug/ear for 30 min after TPA administration (2 μg/ear). Comparisons included equal volumes of ethanol (vehicle control). 18 h after TPA administration, mice were euthanized; the thickness of the ear was measured using a micrometer. Ear punch biopsies were also taken immediately, weighed, and graphed.

Data set [3] deals with C57BL6 mice. The data set can be described thus: DSS induced (acute) colitis. It counts as in vivo. Particulars: 150 μg daily i.p. or 30 μg/ml drinking water, 3.5% DSS. On the procedure:
FIGS. 17A-17D. BC-1215 reduces DSS induced colonic inflammation. FIGS. 17A-FIG. 17C. C57BL6 mice were fed with water containing 3.5% dextran sulfate sodium (DSS) for up to five days. Mice were treated with either vehicle or 100 ug of BC-1215 daily (via IP injection). Mice were then euthanized; the length of the colon was measured and graphed in (FIG. 17A). Colonic tissues were also analyzed for IL1β (FIG. 17B) and TNFα (FIG. 17C) by ELISA. (n=4 mice/group, *p<0.05 versus DSS) FIG. 17D, H&E staining was performed on colonic samples. (n=4 mice/group, *p<0.05 versus DSS)
FIGS. 24A-24E. […] A-D. C57BL6 mice were fed with water ad lib containing 3.5% dextran sulfate sodium (DSS) for up to five days. Mice were treated with either vehicle (control [CON]) or BC-1261 (150 μg) daily (via an i.p. injection), or BC-1261 were administered into drinking water at 30 μg/ml (po). Mice were then euthanized and the length of the colon was measured and graphed in (A-B). Colonic tissues were also analyzed for TNFα (C) and IL6(D). E. H&E staining was performed on colonic sections. The data represent n=4 mice/group, *P<0.05 versus DSS and **P<0.05 versus CON.
BC-1215 ameliorates DSS induced colitis. BC-1215 was also tested in a mouse colitis model to confirm its anti-inflammatory activity. Briefly, C57BL6 mice were fed with water containing 3.5% dextran sulfate sodium (DSS) for up to five days. Mice were treated with either vehicle or 200 ug of BC-1215 daily (via IP injection). Mice were then euthanized; the length of colons was measured. […] Colonic tissue cytokine levels were analyzed. […] Thus, the FBXO3 inhibitor BC-1215 suppresses inflammation in chemical induced colitis model in mice.

The next data set concerns mice. The data set can be described thus: Cigarette smoke induced chronic lung inflammation. Particulars: 100 ug i.p. after 5 weeks smoke, 18 h. It counts as in vivo. On the procedure:
FIGS. 22A-22C. […] Mice were exposed to cigarette smoke for 5 weeks before one does of i.p. injection of BC1261 (100 ug), 18 h later, mice were euthanized and lungs were lavaged with saline, harvested, and then homogenized. Lavage protein, cell counts and cytokine secretion were measured in (A-C). The data represent n=3 mice/group, *P<0.05 versus con.

For data set [4], the system named is C57BL6 mice. The data set can be described thus: DSS induced chronic colonic inflammation. Particulars: 30 μg/ml drinking water from day 7, 2% DSS cycles. The data set is classed as in vivo. On the procedure:
FIGS. 25A-25J. […] A. C57BL6 mice were fed with water ad lib containing 2% dextran sulfate sodium (DSS) for six days, then switch to water for up to three cycles. BC-1261 was administered into drinking water at 30 μg/ml, starting at day 7. Mice were euthanized at the end of the experiment and the length of the colon was measured and graphed in (B-C). Disease index was measured and graphed in (D). Serum cytokine levels were measured in (E-F). Colonic tissues cytokines and MPO activity were also analyzed (GJ). The data represent n=7 mice/group, *P<0.05 versus CON.

`c1csc(-c2ccc(CNCCNCc3ccc(-c4nccs4)cc3)cc2)n1` [BC-1258]: the apoptosis entry with MLE cells is given as “apoptosis”. Moreover, in the data set with MLE cells (different concentrations, 16 h), the cell cycle arrest result is “Induces G2/M arrest”. The tumor growth result in the data set on U937 tumor implants is “suppresses tumor growth in xenograft”.
For the compound `c1cn(-c2ccc(CNCCNCc3ccc(-n4ccnc4)cc3)cc2)cn1` [BC-1207], the “IC50 (cytokine secretion)” value in the data set on human PBMC cells is listed as “high”. In addition, in the data set with U937 monocyte, the LD50 result is given as “low”.
`c1cnc(-c2ccc(CNCCNCc3ccc(-c4ncccn4)cc3)cc2)nc1` [BC-1261]: the “IC50 (cytokine secretion)” value in the data set on human PBMC cells is recorded as “high”. In addition, the LD50 result in the data set on U937 monocyte was “low”. In the data set on C57BL6 mice [1], the “P. aeruginosa induced lung inflammation” value is reported as “reduces P. aeruginosa induced lung inflammation”. Further, in the data set on C57BL6 mice [2], the “TPA induced ear edema” value is “reduces TPA induced ear edema”. Besides, the “DSS induced acute colonic inflammation” value in the data set on C57BL6 mice [3] is given as “reduces DSS induced acute colonic inflammation”. Further, in the data set with mice, the “smoke induced chronic lung inflammation” value is on record as “reduces smoke induced chronic lung inflammation”. Also, the “DSS induced chronic colonic inflammation” value in the data set with C57BL6 mice [4] was “reduces DSS induced chronic colonic inflammation”.
With `Fc1ccc(CNCCNCc2ccc(-c3ccccn3)cc2)cc1` [BC-1241], the “IC50 (cytokine secretion)” value in the data set with human PBMC cells was “high”. Besides, the LD50 entry in the data set with U937 monocyte is “low”.
Turning to `c1cnn(-c2ccc(CNCCNCc3ccc(-n4cccn4)cc3)cc2)c1` [BC-1250], the “IC50 (cytokine secretion)” value in the data set on human PBMC cells is “high”. The LD50 result in the data set on U937 monocyte is given as “low”.
